Assay results as given in publication PMC5584945, “Evaluation of robenidine analog NCL195 as a novel broad-spectrum antibacterial agent” (PLoS ONE, 2017).
Values after ≈ are worked out from the molar mass of the structure shown.

Legend:
[1] = system: Enterococcus faecalis ATCC 29212; assay: MIC, broth micro-dilution (CLSI), control strain; assay type: cell-based
Procedure: MICs for NCL812 and its analogs (serial two-fold dilutions commencing at 128 μg/ml) were determined (in duplicate) in round bottom 96-well microtitre trays (Sarstedt 82.1582.001), using the broth micro-dilution method recommended by the Clinical and Laboratory Standards Institute (CLSI). […] MIC50, MIC90 and MIC range for NCL812, NCL195 and NCL219 were calculated against each S. pneumoniae, S. aureus or VRE isolate. To assess the potential activity of NCL195 against Gram-negative bacteria, MICs against Acinetobacter spp, E. coli, K. pneumoniae, P. aeruginosa, Proteus spp and Neisseria meningitidis were performed in the presence or absence of 0.08 mM-20 mM EDTA in a standard checkerboard assay.

human red blood cells = assay: Haemolysis assay; assay type: cell-based; conditions: 1 h, 37°C; highest concentration used 128 μg/ml
Procedure: This was performed using fresh donor human red blood cells (RBCs), essentially as described previously. Fresh RBCs were washed in PBS three times at 500 × g for 5 min, and then resuspended 1% (w/v) in PBS. […] Thereafter, 198 μL of the 1% RBC solution was added into each well, and the mixture incubated for 1 h at 37°C, with shaking at 100 rpm. Quadruplicate wells containing either 1% Triton X100, or PBS only, served as controls. After incubation, the trays were centrifuged at 1,000 × g for 3 min and 100 μl of supernatant from each well transferred into a new 96-well tray. Absorbance was measured at A450 nm on a Multiskan Ascent 354 Spectrophotometer (Labsystems) and plotted against each dilution. Haemolytic titer was determined as the reciprocal of the dilution at which 50% of erythrocytes were lysed at A450 nm. The experiment was performed twice.

MDBK = assay: Real-time cell viability, RealTime-Glo MT; assay type: cell-based, bovine; conditions: 2 or 8 μg/ml, up to 20 h post-treatment
Excerpt: In order to ensure minimal off target mammalian cell cytotoxicity, we assayed NCL812, NCL195 and NCL219 for in vitro cytotoxicity using a panel of adherent mammalian cell lines: Caco-2 (human colorectal adenocarcinoma cell line), HEL 299 (non-cancerous human lung fibroblast cell line), Hep G2 (human hepatocellular carcinoma cell line), MDBK (normal bovine kidney cell line) and MCF7 (human mammary gland adenocarcinoma cell line). Cell lines were maintained in Dulbecco’s Modified Eagle’s Medium (DMEM; […] After 24 h incubation, media was removed, washed once with medium without antibiotics and fresh medium supplemented with 10% (vol/vol) FBS was added. […] Following exposure for 24 h, WST-1 reagent was added to each well at a final concentration of 10%. […] The IC50 value for each compound against each cell line was determined via non-linear regression (three parameters) using GraphPad Prism v6 software. The robustness of assays was confirmed with selected cell lines (Hep G2 and MDBK) seeded onto a 96–well Microwell Nunclon Delta Surface plate (Thermo Scientific Nunc; Cat No: 136101) at 5 × 10^4 cells per well.

S. aureus ATCC49775 = assay: Membrane potential, DiOC2(3) fluorescence; assay type: cell-based, Staphylococcus aureus; conditions: 16 μg/ml, pre-incubated 5 min; versus untreated and ampicillin
Procedure: To further examine the mechanism underlying the perturbation of the cell membrane of S. pneumoniae or S. aureus by the NCL compounds, the membrane potential of the cells was measured by fluorescence spectrometry using (DiOC2(3), essentially as described previously. Briefly, […] cells from an overnight HBA plate were grown in Todd-Hewitt broth supplemented with 1% yeast extract (THY) at 37°C, 5% CO2 until A600 nm = 0.5. […] The cuvette was then placed in a LS 55 Fluorescence Spectrometer (PerkinElmer) set at Ex. 488 nm/Em. 620 nm, with excitation and emission slit widths at 5 nm and 7 nm, respectively). […] All assays were performed at least twice.

[2] = Kinetic solubility by nephelometry; assay type: physicochemical; conditions: kinetic from dmso stock
S. aureus Xen29 = assay: Time-dependent killing assay; assay type: cell-based, Staphylococcus aureus
Procedure: Time kill assays were performed (in duplicate) essentially as described previously with slight modifications. Briefly, a few colonies of luminescent S. pneumoniae strain D39LUX or luminescent S. aureus ATCC 12600 (Xen29) from an overnight HBA were emulsified in normal saline and adjusted to A600 nm = 0.10 (equivalent to approx. 5 × 10^7 c.f.u. per ml) and the bacterial suspension further diluted 1:20 in saline. […] The compounds were serially diluted in 100% DMSO at 100× the final desired concentration and 100 μl of appropriate concentrations added to each 10 ml preparation. Duplicate cultures were incubated at 37°C (+ 5% CO2 for S. pneumoniae D39), with samples withdrawn at 0, 0.5, 1, 2, 4, 6, 8 and 24 h, serially diluted 10-fold and plated on HBA overnight at 37°C (+ 5% CO2 for S. pneumoniae D39) for bacterial enumeration.

[3] = system: vancomycin-resistant enterococci (VRE); assay: MIC, broth micro-dilution (CLSI); assay type: cell-based, enterococci (porcine isolates); conditions: for MIC50 / MIC90 / MIC: Enterococcus, VRE
[4] = S3 Table isolates, absence of FBS

Cc1ccc(/C=N/Nc2cc(N/N=C/c3ccc(C)cc3)nc(N)n2)cc1 [NCL195, 4,6-bis(2-((E)-4-methylbenzylidene)hydrazinyl)pyrimidin-2-amine]
MIC ([1]; ATCC29212, 10% FBS): 32 µg/mL
MIC ([1]; ATCC29212, absence of FBS): 4 µg/mL
50% haemolysis titre (HC50) (human red blood cells): > 128 µg/mL
Effect on cell viability (real-time) (MDBK): no measurable effect on cell viability
Effect on generated membrane potential (S. aureus ATCC49775): large reduction in the magnitude of the generated membrane potential
solubility ([2]; pH 2.0): 3.1 to 6.3 µg/mL (≈ 8.62 to 17.5 µM)
solubility ([2]; pH 6.5): < 1.6 µg/mL
Time to clear all Xen29 (S. aureus Xen29; 2× MIC): 6 h
Time to clear all Xen29 (S. aureus Xen29; 4× MIC): 6 h
Regrowth after 24 h (S. aureus Xen29; at the concentrations tested (2× and 4× MIC)): some S. aureus regrowth was observed
Fold increase of MIC range in the presence of 10% FBS ([3]; 10% FBS versus no FBS): 4 fold
MIC range ([3]; 20 isolates): 2 to 4 µg/mL
MIC50 ([3]; S3 Table isolates, 10% FBS): 16 µg/mL (≈ 44.5 µM)
MIC90 ([3]; S3 Table isolates, 10% FBS): 32 µg/mL (≈ 89 µM)
MIC50 [3, 4]: 2 µg/mL (≈ 5.56 µM)
MIC90 [3, 4]: 4 µg/mL (≈ 11.1 µM)
MIC ([3]; VRE 1 (49 FR), 10% FBS): 16 µg/mL (≈ 44.5 µM)
MIC ([3]; VRE 1 (49 FR), absence of FBS): 4 µg/mL (≈ 11.1 µM)
MIC ([3]; VRE 2 (53 FR), 10% FBS): 16 µg/mL (≈ 44.5 µM)
MIC ([3]; VRE 2 (53 FR), absence of FBS): 2 µg/mL (≈ 5.56 µM)
MIC ([3]; VRE 3 (55 FR), 10% FBS): 16 µg/mL (≈ 44.5 µM)
MIC ([3]; VRE 3 (55 FR), absence of FBS): 2 µg/mL (≈ 5.56 µM)
MIC ([3]; VRE 4 (57 FR), 10% FBS): 16 µg/mL (≈ 44.5 µM)
MIC ([3]; VRE 4 (57 FR), absence of FBS): 2 µg/mL (≈ 5.56 µM)
MIC ([3]; VRE5 (58 FR), 10% FBS): 32 µg/mL (≈ 89 µM)
MIC ([3]; VRE5 (58 FR), absence of FBS): 4 µg/mL (≈ 11.1 µM)
MIC ([3]; VRE 6 (59 FR), 10% FBS): 16 µg/mL (≈ 44.5 µM)
MIC ([3]; VRE 6 (59 FR), absence of FBS): 4 µg/mL (≈ 11.1 µM)
MIC ([3]; VRE 7 (270 G), 10% FBS): 32 µg/mL (≈ 89 µM)
MIC ([3]; VRE 7 (270 G), absence of FBS): 4 µg/mL (≈ 11.1 µM)
MIC ([3]; VRE 8 (277 G), 10% FBS): 32 µg/mL (≈ 89 µM)
MIC ([3]; VRE 8 (277 G), absence of FBS): 4 µg/mL (≈ 11.1 µM)
MIC ([3]; VRE 9 (61 FR), 10% FBS): 16 µg/mL (≈ 44.5 µM)
MIC ([3]; VRE 9 (61 FR), absence of FBS): 4 µg/mL (≈ 11.1 µM)
MIC ([3]; VRE 10 (62 FR), 10% FBS): 16 µg/mL (≈ 44.5 µM)
MIC ([3]; VRE 10 (62 FR), absence of FBS): 4 µg/mL (≈ 11.1 µM)
MIC ([3]; VRE 11 (284 G), 10% FBS): 16 µg/mL (≈ 44.5 µM)
MIC ([3]; VRE 11 (284 G), absence of FBS): 4 µg/mL (≈ 11.1 µM)
MIC ([3]; VRE 12 (290 G), 10% FBS): 16 µg/mL (≈ 44.5 µM)
MIC ([3]; VRE 12 (290 G), absence of FBS): 2 µg/mL (≈ 5.56 µM)
MIC ([3]; VRE 13 (251 G), 10% FBS): 16 µg/mL (≈ 44.5 µM)
MIC ([3]; VRE 13 (251 G), absence of FBS): 2 µg/mL (≈ 5.56 µM)
MIC ([3]; VRE 14 (252 G), 10% FBS): 32 µg/mL (≈ 89 µM)
MIC ([3]; VRE 14 (252 G), absence of FBS): 2 µg/mL (≈ 5.56 µM)
MIC ([3]; VRE 15 (63 FR), 10% FBS): 16 µg/mL (≈ 44.5 µM)
MIC ([3]; VRE 15 (63 FR), absence of FBS): 2 µg/mL (≈ 5.56 µM)
MIC ([3]; VRE 16 (60 FR), 10% FBS): 16 µg/mL (≈ 44.5 µM)
MIC ([3]; VRE 16 (60 FR), absence of FBS): 2 µg/mL (≈ 5.56 µM)
MIC ([3]; VRE 17 (45 FR), 10% FBS): 32 µg/mL (≈ 89 µM)
MIC ([3]; VRE 17 (45 FR), absence of FBS): 2 µg/mL (≈ 5.56 µM)
MIC ([3]; VRE 18 (69 W), 10% FBS): 16 µg/mL (≈ 44.5 µM)
MIC ([3]; VRE 18 (69 W), absence of FBS): 2 µg/mL (≈ 5.56 µM)
MIC ([3]; VRE 19 (70 W), 10% FBS): 16 µg/mL (≈ 44.5 µM)
MIC ([3]; VRE 19 (70 W), absence of FBS): 2 µg/mL (≈ 5.56 µM)
MIC ([3]; VRE 20 (78 W), 10% FBS): 32 µg/mL (≈ 89 µM)
MIC ([3]; VRE 20 (78 W), absence of FBS): 4 µg/mL (≈ 11.1 µM)
MIC range ([3]; S3 Table isolates, 10% FBS): 16 to 32 µg/mL
MIC range [3, 4]: 2 to 4 µg/mL
